From patent US5156846A, “Percutaneous drug delivery system” (University of Utah, priority 1991, dated 1992)
Like-named read-outs stand apart in the source and are kept apart here.

Key:
Nude Mouse Skin [1] = experiment: In vivo skin recovery following papain treatment: percent urinary recovery 7 days after papain (Example 1B); parameters: species or system congenitally athymic nude mice
Procedure: Experiments were conducted to measure the time required for papain-treated mice to return to normal levels of absorption. These experiments were conducted as described in Example 1A, except that following the removal of papain from the mouse's skin, the mice were maintained separately in metabolism cages for varying periods of time prior to the application of the labeled model compounds. After various time intervals, 150 μl of radiolabeled chemicals were applied separately on the 1 cm^2 marked areas on the backs of the mice, where papain had previously been applied. The mice were then kept in separate metabolism cages and at time intervals of 17, 41, and 65 hours, urine was collected and counted using a scintillation counter.

Nude Mouse Skin [2] = experiment: Percent urinary recovery of radiolabeled chemicals and protein through nude mouse skin immediately following papain treatment, and controls (Example 1A)
Procedure: Various anionic, cationic, and nonionic chemicals were utilized as model compounds to determine the influence of proteolytic enzymes of the transdermal penetration of these substances. […] Additional studies were performed using ^14 -C-labeled albumin, lysozyme, and insulin to determine the ability of the proteolytic enzymes to enhance the percutaneous absorption of larger molecules.
Two hundred μl of this solution was applied on to 1 cm^2 areas on the back of congenitally athymic nude mice. The 1 cm^2 areas were covered with folded gauze pads to absorb the excess papain solution, then the areas were occluded with a transparent dressing (Bioclusive Tape) and an adhesive tape. Each mouse was individually housed in separate cages for 24 hours. At the end of this time, residual papain on the surface of the mouse's skin was removed by washing. After cleansing the skin, 150 μl of radiolabeled material was applied separately on each marked area of mouse skin and covered with gauze sponge and Bioclusive tape and adhesive tape. Mice were kept in metabolism cages, one animal per cage, and urine samples collected for scintillation counting to determine the quantity of radiolabeled materials being excreted. Parallel studies were conducted simultaneously on non- papain-treated living mice. These studies served as controls against which the treated animals were measured.

[3] = tested on: Papain-Treated Athymic Nude Mice Skin; experiment: In vitro permeation through excised papain-treated athymic nude mouse skin, Franz-type diffusion cells (Example 2); format: in vitro ADME, congenitally athymic nude mice
Procedure: Because of some complications encountered during studies utilizing papain treatment by in vivo method (e.g. extended excretion due to storage in various body compartments, delayed response times, etc.) it was decided that additional studies should be conducted wherein the mouse skin was allowed to recover in situ, then excised after various time intervals and evaluated by in vitro permeation methods.
These experiments were conducted by preparing, applying, and occluding papain solutions onto the backs of congenitally athymic nude mice in the same manner as described in Example 1A. At the end of the 24-hour papain treatment, the skin was again cleansed of excess solution. Skin was then excised from part of the animals. The remainder of the animals were housed individually in regular cages for various periods of time (24 hours and 48 hours), after which the treated areas were excised. Immediately following excision of the treated areas, the skins were mounted over Franz-Type, Single-Compartment Diffusion Cells. Four hundred μl of saturated solutions of radiolabeled citric acid, TEAB, glucose, and hydrocortisone were applied, individually, to the exposed surface of the mounted skins on the donor chamber. Saturated solutions of each of these substances were used in order to ensure maximum availability of labeled substances. At varying time intervals, 100 μl samples were removed from the receiver chambers for scintillation counting. All experiments were conducted at 25° C.

[4] = Effect of pH on drug penetration through hairless mouse skin pretreated with Sigma papain (Example 6B); format: in vitro ADME; parameters: E: unit not given here; conditions: mouse, read-out: P (permeability)
Procedure: (§1) B. Effect of pH on drug penetration through hairless mouse skin pretreated with Sigma papain of concentration 0.093 mg/ml for 24 hours

mouse skin [5] = experiment: Citric acid penetration through mouse skin with two sources of papain (Example 8); format: in vitro ADME; conditions: FIG. 20, 0.170 mg papain in 0.1 ml of water; Sigma papain not activated
Procedure: Each enzyme preparation contained 0.170 mg of papain dissolved in 0.1 ml of water. One sample of papain was obtained from Allergan. The other was obtained from Sigma Chemical. […] The Sigma Chemical papain was not activated in this experiment.

Hairless mouse skin = conditions: papain 0.093 mg/ml, pH 7.4, 24 hours pretreatment
Procedure: Hairless mouse skin was pretreated with papain at a concentration of 0.093 mg/ml at pH 7.4 for 24 hours.

mouse skin [6] = tested on: mouse skin
Description: In this experiment, varying amounts of Sigma papain, activated with cysteine and EDTA, were used.

skin = experiment: Pretreatment of skin samples with papain: drug penetration, skin damage and activation
Procedure: Whatever the enzyme or enzymes selected, each is typically admixed with a liquid, such as water or ethanol to form an enzyme preparation. The concentration of enzymes(s) in liquid will be of a sufficient quantity to increase the skin's permeability to selected drugs over a predetermined time period. […] Concentrations of papain in water will generally be greater than about 0.019 milligrams/milliliter (mg/ml). Preferred concentrations of papain in water will be less than about 0.093 mg/ml.
For example, papain from Sigma Chemical may be activated with the chelating agent ethylenediaminetetraacetic acid ("EDTA"). […] Amounts of EDTA in a papain enzyme preparation will vary from 2 mg/ml to about 20 mg/ml. The amino acid cysteine can also serve as an activating agent.

[7] = tested on: hairless mouse skin pretreated with Sigma papain; experiment: Effect of pH on drug penetration through hairless mouse skin pretreated with Sigma papain (Example 6B); format: in vitro ADME; parameters: E: unit not given here; conditions: for E: Sigma papain 0.093 mg/ml for 24 hours
Procedure: as §1

[8] = Effect of pH on drug penetration through normal untreated hairless mouse skin (Example 6A); format: in vitro ADME; conditions: mouse
[9] = tested on: normal untreated hairless mouse skin; experiment: as above; format: in vitro ADME; conditions: pH 8.0
Description: A. Effect of pH on drug penetration through normal untreated hairless mouse skin

mouse skin [10] = experiment: Skin damage as measured by bleeding of mouse skin (Example 5); format: in vivo
Procedure: The absolute amounts and relative concentrations of an enzyme preparation containing papain to determine skin damage as measured by bleeding of mouse skin was determined.

[11] = 7 days following papain treatment
[12] = control, no papain treatment, immediate
[13] = immediately following papain treatment
[14] = 7 hours exposure, 1 cm^2 section of skin, saturated solution in water, 25° C
[15] = pH 5.9, read-out: P (permeability)
[16] = pH 6.6, read-out: P (permeability)
[17] = pH 5.9, Sigma papain 0.093 mg/ml for 24 hours, pH 5.9
[18] = pH 6.6, Sigma papain 0.093 mg/ml for 24 hours, pH 6.6
[19] = pH 7.4, Sigma papain 0.093 mg/ml for 24 hours, pH 7.4
[20] = papain greater than 0.093 mg/ml, pH 7.4

## Lysozyme: 14-C-labeled lysozyme
Nude Mouse Skin [1]; [11]
  Percent Recovery (urinary recovery): 0.0%

## C[C@]12CCC(=O)C=C1CC[C@@H]1[C@@H]2[C@@H](O)C[C@@]2(C)[C@H]1CC[C@]2(O)C(=O)CO [Hydrocortisone, hydrocortisone]
Nude Mouse Skin [2]; [12]
  Percent Recovery (urinary recovery): 2.5%
Nude Mouse Skin [2]; [13]
  Percent Recovery (urinary recovery): 24.7%
Nude Mouse Skin [1]; [11]
  Percent Recovery (urinary recovery): 0.6%
[3]; 7 hours exposure, 1 cm^2 section of skin, saturated solution in ethanol, 25° C
  transdermal penetration: about 125 μg

## Albumin: 14-C-labeled albumin
Nude Mouse Skin [1]; [11]
  Percent Recovery (urinary recovery): 0.0%

## CC(=O)CC(c1ccccc1)c1c(O)c2ccccc2oc1=O (stereo not shown) [Warfarin, warfarin]
[4]; Sigma papain 0.093 mg/ml for 24 hours, pH 5.9
  Papp: 1.27 ×10⁻⁶ cm/s
[4]; Sigma papain 0.093 mg/ml for 24 hours, pH 6.6
  Papp: 1.2 ×10⁻⁶ cm/s
[4]; Sigma papain 0.093 mg/ml for 24 hours, pH 7.4
  Papp: 0.99 ×10⁻⁶ cm/s
[4]; Sigma papain 0.093 mg/ml for 24 hours, pH 8.0
  Papp: 1.21 ×10⁻⁶ cm/s

## Insulin: 14-C-labeled insulin
Nude Mouse Skin [1]; [11]
  Percent Recovery (urinary recovery): 0.0%

## O=C(O)CC(O)(CC(=O)O)C(=O)O [Citric Acid, citric acid]
Nude Mouse Skin [1]; [11]
  Percent Recovery (urinary recovery): 0.2%
[3]; [14]
  transdermal penetration: about 55 mg
Mouse skin [5]
  penetration through mouse skin: enhanced to a greater extent by the Allergan papain than that of Sigma Chemical

## CC[N+](CC)(CC)CC.[Br-] [TEAB, tetraethylammonium bromide]
Nude Mouse Skin [1]; mouse, in vivo, topical or ocular
  Percent Recovery (urinary recovery): 5.3%
[3]; [14]
  transdermal penetration: ~19 mg
Hairless mouse skin
  increase in absorption in comparison to normal, untreated mouse skin: 33 fold
Mouse skin [6]
  drug penetration through mouse skin: varies directly with the amount of papain used
skin
  penetration through the skin: increases the penetration

## C=CCc1ccccc1OCC(O)CNC(C)C (stereo not shown) [Alprenolol, alprenolol]
[7]; pH 5.9
  E: 22.39
[7]; pH 6.6
  E: 17.18
[7]; pH 7.4
  E: 7.17
[7]; pH 8.0
  E: 7.86
[7]; mouse, pH 8
  P (permeability): 1.65 = 10^-6 cm/sec

## OC[C@H]1OC(O)[C@H](O)[C@@H](O)[C@@H]1O (stereo partly shown) [Glucose, glucose]
Nude Mouse Skin [2]; [12]
  Percent Recovery (urinary recovery): 0.07%
Nude Mouse Skin [2]; [13]
  Percent Recovery (urinary recovery): 1.8%
Nude Mouse Skin [1]; [11]
  Percent Recovery (urinary recovery): 0.1%
[3]
  transdermal penetration: about 22 mg

## CC(=O)OCC[N+](C)(C)C.[Cl-] [Acetylcholine Chloride, acetylcholine chloride]
[8]; [15]
  Papp: 0.0291 ×10⁻⁶ cm/s
[8]; [16]
  Papp: 0.026 ×10⁻⁶ cm/s
[8]; pH 7.4, read-out: P (permeability)
  Papp: 0.032 ×10⁻⁶ cm/s
[8]; pH 8.0, read-out: P (permeability)
  Papp: 0.0466 ×10⁻⁶ cm/s
[4]; [17]
  Papp: 3 ×10⁻⁶ cm/s
[4]; [18]
  Papp: 3.88 ×10⁻⁶ cm/s
[4]; [19]
  Papp: 3.23 ×10⁻⁶ cm/s
[4]; pH 8, Sigma papain 0.093 mg/ml for 24 hours, pH 8.0
  Papp: 3.14 ×10⁻⁶ cm/s
[7]; pH 5.9
  E: 103.09
[7]; pH 6.6
  E: 149.23
[7]; pH 7.4
  E: 100.94
[7]; pH 8.0
  E: 67.38

## CC(=O)[C@H]1CC[C@H]2[C@@H]3CCC4=CC(=O)CC[C@]4(C)[C@H]3CC[C@]12C [Progesterone, progesterone]
[8]; [15]
  Papp: 2.88 ×10⁻⁶ cm/s
[8]; [16]
  Papp: 2.92 ×10⁻⁶ cm/s
[9]
  P (permeability): 0.247 ×10⁻⁶ cm/s
[4]; [17]
  Papp: 3.6 ×10⁻⁶ cm/s
[4]; [18]
  Papp: 4.39 ×10⁻⁶ cm/s
[4]; [19]
  Papp: 3.41 ×10⁻⁶ cm/s
[7]; pH 5.9
  E: 1.25
[7]; pH 6.6
  E: 1.50
[7]; pH 7.4
  E: 1.17
[7]; pH 8.0
  E: 1.17

B1: papain: A preferred enzyme is papain, which is readily available from Allergan of Irvine, Calif., Sigma Chemical Company of St. Louis, Mo., and other sources (protein, UniProt P00784 134-345, looked up)
Papain: IPEYVDWRQKGAVTPVKNQGSCGSCWAFSAVVTIEGIIKIRTGNLNEYSEQELLDCDRRSYGCNGGYPWSALQLVAQYGIHYRNTYPYEGVQRYCRSREKGPYAAKTDGVRQVQPYNEGALLYSIANQPVSVVLEAAGKDFQLYRGGIFVGPCGNKVDHAVAAVGYGPNYILIKNSWGTGWGENGYIRIKRGTGNSYGVCGLYTSSFYPVKN
Mouse skin [10]; absolute amount of papain: 0.010 mg/0.108 ml
  time until bleeding observed: > 24 h
Mouse skin [10]; absolute amount of papain: 0.030 mg/0.108 ml
  time until bleeding observed: about 5.0 hrs
Mouse skin [10]; absolute amount of papain: 0.050 mg/0.180 ml
  time until bleeding observed: about 1.5 hrs
Mouse skin [10]; absolute amount of papain: 0.070 mg/0.250 ml
  time until bleeding observed: about 0.5 hrs
Mouse skin [10]; concentration of papain: 0.010 mg/0.108 ml
  time until bleeding observed: > 24 h
Mouse skin [10]; concentration of papain: 0.020 mg/0.108 ml
  time until bleeding observed: > 24 h
Mouse skin [10]; concentration of papain: 0.030 mg/0.108 ml
  time until bleeding observed: ~24 h
Mouse skin [10]; concentration of papain: 0.040 mg/0.108 ml
  time until bleeding observed: ~24 h
skin; 0.10 molar cysteine with 0.0375 molar EDTA as activating agent
  penetration of drug through the skin: greater penetration of drug through the skin
skin; [20]
  drug penetration: greater drug penetration
  skin damage: damages the skin, possibly leading to bleeding
